In patent publication US20190292167A1, “HETEROAROMATIC COMPOUNDS USEFUL FOR THE TREATMENT OF PROLIFERATIVE DISEASES” (Syros Pharmaceuticals, Inc., priority 2013, published 2019) one finds IC50 data, which are given here for 19 molecules.

One test has as its target T1, CDK7 (Homo sapiens, UniProt P50613).
T1 construct: purchased Life Technologies (Adapta kinase assay service)
Kind of test: Adapta kinase assay (Life Technologies) against CDK7, co-factors cyclin H and MNAT1. The format is biochemical. As to conditions: read-out: CDK7 Inhibition. The procedure:
Compounds of the invention were assayed for activity against CDK7 at Life Technologies™ (Grand Island, N.Y.) using their commercially available Adapta® kinase assay services. […] Details of the assay, including the substrate used for CDK7 kinase, are available on the Life Technologies web site (http://www.lifetechnologies.com/us/en/homellife-science/drug-discovery/target-and-lead-identification-and-validation/kinasebiology/kinase-activity-assays.html).
The co-factors used for the assay were cyclin H and MNAT1.

A further test relates to Jurkat. Kind of test: Inhibition of cell proliferation, CellTiter-Glo, 72 hour. The format is cell-based. As to conditions: read-out: Inhibition of Proliferation of Jurkat Cells. The procedure: The following cancer cell lines were tested with the media conditions indicated: […]
A general note: In ATP-based viability assays light output follows the ATP content of the culture.

Setting [1] is: Homo sapiens, Jurkat, 72 h, Blood cancer cell line, 72 hour.
[2] abbreviates: Blood cancer cell line, 72 hour.

pIC50: −log10 of the molar value. Structures can show the parent of a compound that is named as a salt. Where two headings read alike, the source gives them in different places. A value given as a limit tells only on which side of the number the result lay.

T1 sequence (P50613 whole entry): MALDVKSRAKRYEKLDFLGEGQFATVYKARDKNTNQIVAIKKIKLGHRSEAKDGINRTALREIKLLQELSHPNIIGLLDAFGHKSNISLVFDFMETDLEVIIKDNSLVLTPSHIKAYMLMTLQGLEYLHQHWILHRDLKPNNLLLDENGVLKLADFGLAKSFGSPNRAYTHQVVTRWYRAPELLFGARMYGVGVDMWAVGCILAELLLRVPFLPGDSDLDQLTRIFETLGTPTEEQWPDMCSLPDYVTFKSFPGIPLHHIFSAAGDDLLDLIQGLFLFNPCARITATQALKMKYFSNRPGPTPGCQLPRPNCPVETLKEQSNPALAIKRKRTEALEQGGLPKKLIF
T1 sequence (P51946 whole entry partner): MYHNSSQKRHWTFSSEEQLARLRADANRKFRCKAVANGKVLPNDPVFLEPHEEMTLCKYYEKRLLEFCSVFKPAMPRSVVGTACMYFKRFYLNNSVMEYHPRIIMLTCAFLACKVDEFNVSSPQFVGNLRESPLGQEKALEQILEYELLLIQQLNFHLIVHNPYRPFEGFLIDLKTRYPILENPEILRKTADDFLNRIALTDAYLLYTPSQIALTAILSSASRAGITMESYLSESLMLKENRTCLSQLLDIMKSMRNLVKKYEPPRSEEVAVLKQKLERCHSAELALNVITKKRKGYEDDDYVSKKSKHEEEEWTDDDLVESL
T1 sequence (P51948 whole entry partner): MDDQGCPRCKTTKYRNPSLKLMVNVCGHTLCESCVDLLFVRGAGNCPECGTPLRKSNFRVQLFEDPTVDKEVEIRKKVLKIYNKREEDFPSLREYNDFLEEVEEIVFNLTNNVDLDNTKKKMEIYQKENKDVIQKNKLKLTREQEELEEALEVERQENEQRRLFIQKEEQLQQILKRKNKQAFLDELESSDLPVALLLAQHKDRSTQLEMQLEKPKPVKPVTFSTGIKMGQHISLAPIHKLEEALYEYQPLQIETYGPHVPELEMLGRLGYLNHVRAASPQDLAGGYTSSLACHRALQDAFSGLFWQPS

On to `N#Cc1cnc(N[C@@H]2CCN(C(=O)c3ccc(NC(=O)/C=C/Cn4ccnc4)cc3)C2)nc1-c1c[nH]c2ccccc12` [Compound 109, (E)-N-(4-((R)-3-(5-cyano-4-(1H-indol-3-yl)pyrimidin-2-ylamino)pyrrolidine-1-carbonyl)phenyl)-4-(1H-imidazol-1-yl)but-2-enamide], for which the pIC50 on CDK7 was greater than 7.00; in the test on Jurkat (Homo sapiens, Jurkat, 72 h), greater than 6.30.

Take `Cc1cc(C(=O)N2CCC(Nc3ncc(Cl)c(-c4c[nH]c5ccccc45)n3)CC2)ccc1N` [Compound 59, (4-amino-3-methylphenyl)(4-(5-chloro-4-(1H-indol-3-yl)pyrimidin-2-ylamino)piperidin-1-yl)methanone]: the pIC50 was greater than 7.00 at CDK7 and greater than 6.30 in the test with Jurkat (setting [1]).

With `Nc1ccc(C(=O)N2CCC(Nc3ncc(Cl)c(-c4c[nH]c5ccccc45)n3)CC2)c(F)c1` [Compound 67, (4-amino-2-fluorophenyl)(4-(5-chloro-4-(1H-indol-3-yl)pyrimidin-2-ylamino)piperidin-1-yl)methanone], the pIC50 was 6.00 to 7.00 at CDK7 and 5.30 to 6.30 with Jurkat (setting [1]).

Take `CN1CCN(C/C=C/C(=O)Nc2ccc(C(=O)N3CC[C@@H](Nc4ncc(C#N)c(-c5c[nH]c6ccccc56)n4)C3)cc2)CC1` [Compound 110, (E)-N-(4-((R)-3-(5-cyano-4-(1H-indol-3-yl)pyrimidin-2-ylamino)pyrrolidine-1-carbonyl)phenyl)-4-(4-methylpiperazin-1-yl)but-2-enamide]: the pIC50 was greater than 7.00 at CDK7 and greater than 6.30 in the test on Jurkat (setting [1]).

As for `CN(C/C=C/C(=O)Nc1ccc(C(=O)N2CC[C@@H](Nc3ncc(C#N)c(-c4c[nH]c5ccccc45)n3)C2)cc1)CCO` [Compound 111, (E)-N-(4-((R)-3-(5-cyano-4-(1H-indol-3-yl)pyrimidin-2-ylamino)pyrrolidine-1-carbonyl)phenyl)-4-((2-hydroxyethyl)(methyl)amino)but-2-enamide], the values for the pIC50 at CDK7 and in the test on Jurkat (setting [1]) were greater than 7.00 and greater than 6.30, respectively.

As for `Nc1ccc(S(=O)(=O)N2CC[C@@H](Nc3ncc(Cl)c(-c4c[nH]c5ccccc45)n3)C2)cc1` [Compound 32, N—((R)-1-(4-aminophenylsulfonyl)pyrrolidin-3-yl)-5-chloro-4-(1H-indol-3-yl)pyrimidin-2-amine], the pIC50 on CDK7 is greater than 7.00; in the test on Jurkat (setting [1]), less than 5.30.

As for `CN(C)C/C=C/C(=O)NCCC(=O)Nc1cccc(Nc2ncc(Cl)c(-c3c[nH]c4ccccc34)n2)c1` [Compound 131, (E)-N-(3-(3-(5-chloro-4-(1H-indol-3-yl)pyrimidin-2-ylamino)phenylamino)-3-oxopropyl)-4-(dimethylamino)but-2-enamide], the pIC50 is 6.00 to 7.00 at CDK7 and 5.30 to 6.30 with Jurkat (setting [1]).

As for `CN(C)C/C=C/C(=O)Nc1ccc(CN2CCC(Nc3ncc(Cl)c(-c4c[nH]c5ccccc45)n3)CC2)cc1` [Compound 106, (E)-N-(4-((4-((5-chloro-4-(1H-indol-3-yl)pyrimidin-2-yl)amino)piperidin-1-yl)methyl)phenyl)-4-(dimethylamino)but-2-enamide], the pIC50 at CDK7 was greater than 7.00; in the test with Jurkat (setting [1]), greater than 6.30.

With `C=CC(=O)Nc1ccc(CNC(=O)[C@@H]2CNC[C@H](Nc3ncc(Cl)c(-c4c[nH]c5ccccc45)n3)C2)cc1` (relative stereo) [Compound 152, (+/−cis)-N-(4-acrylamidobenzyl)-5-((5-chloro-4-(1H-indol-3-yl)pyrimidin-2-yl)amino)piperidine-3-carboxamide], the pIC50 on CDK7 is greater than 7.00; in the test on Jurkat (setting [2]) it was 5.30 to 6.30.

`C=CC(=O)Nc1ccc(CNC(=O)[C@H]2C[C@H](Nc3ncc(Cl)c(-c4c[nH]c5ccccc45)n3)CN(C)C2)cc1` (relative stereo) [Compound 155, (+/−trans)-N-(4-acrylamidobenzyl)-5-((5-chloro-4-(1H-indol-3-yl)pyrimidin-2-yl)amino)-1-methylpiperidine-3-carboxamide]: the pIC50 is 6.00 to 7.00 at CDK7 and 5.30 to 6.30 with Jurkat (setting [2]).

As for `Cc1cc(NC(=O)/C=C/CN(C)C)ccc1C(=O)N1CCC(Nc2ncc(Cl)c(-c3c[nH]c4ccccc34)n2)CC1` [Compound 114, (E)-N-(4-(4-(5-chloro-4-(1H-indol-3-yl)pyrimidin-2-ylamino)piperidine-1-carbonyl)-3-methylphenyl)-4-(dimethylamino)but-2-enamide], the pIC50 at CDK7 is greater than 7.00; with Jurkat (setting [1]), greater than 6.30.

Take `CN(C)C/C=C/C(=O)Nc1ccc(C(=O)N[C@@H]2CC[C@H](Nc3ncc(Cl)c(-c4c[nH]c5ccccc45)n3)C2)cc1` [Compound 129, N-((1R,3S)-3-((5-chloro-4-(1H-indol-3-yl)pyrimidin-2-yl)amino)cyclopentyl)-4-((E)-4-(dimethylamino)but-2-enamido)benzamide]: the pIC50 on CDK7 was greater than 7.00; with Jurkat (setting [1]) it was greater than 6.30.

For the molecule `Nc1ccc(CN2CCC(Nc3ncc(Cl)c(-c4c[nH]c5ccccc45)n3)CC2)cc1` [Compound 48, N-(1-(4-aminobenzyl)piperidin-4-yl)-5-chloro-4-(1H-indol-3-yl)pyrimidin-2-amine.HCl], the pIC50 on CDK7 was 6.00 to 7.00; in the test on Jurkat (setting [1]) it was 5.30 to 6.30.

In the case of `C=CC(=O)Nc1ccc(C(=O)NC2CC3(C2)CC(Nc2ncc(Cl)c(-c4c[nH]c5ccccc45)n2)C3)cc1` (centres unmarked) [Compound 138, 4-acrylamido-N-(6-((5-chloro-4-(1H-indol-3-yl)pyrimidin-2-yl)amino)spiro[3.3]heptan-2-yl)benzamide], the pIC50 on CDK7 is 6.00 to 7.00; in the test on Jurkat (setting [1]) it was 5.30 to 6.30.

As for `CN(C)C/C=C/C(=O)Nc1ccc(C(=O)N2[C@@H]3CC[C@H]2C[C@@H](Nc2ncc(Cl)c(-c4c[nH]c5ccccc45)n2)C3)cc1` [Compound 116, ((1R,3R,5S)-3-(5-chloro-4-(1H-indol-3-yl)pyrimidin-2-ylamino)-8-aza-bicyclo[3.2.1]octan-8-yl)(4-((E)-N-4-(dimethylamino)but-2-enamide)phenyl)methanone], the figures for the pIC50 at CDK7 and in the test on Jurkat (setting [1]) were 6.00 to 7.00 and 5.30 to 6.30, respectively.

`CN(C)C/C=C/C(=O)NCC(=O)Nc1cccc(Nc2ncc(Cl)c(-c3c[nH]c4ccccc34)n2)c1` [Compound 137, (E)-N-(2-(3-(5-chloro-4-(1H-indol-3-yl)pyrimidin-2-ylamino)phenylamino)-2-oxoethyl)-4-(dimethylamino)but-2-enamide]: the figures for the pIC50 on CDK7 and with Jurkat (setting [1]) were greater than 7.00 and 5.30 to 6.30, respectively.

As for `CN(C)CC=CC(=O)Nc1ccc(C(=O)NC2CNCC(Nc3ncc(Cl)c(-c4c[nH]c5ccccc45)n3)C2)cc1` (racemic) [Compound 150, N-((+/−trans)-5-((5-chloro-4-(1H-indol-3-yl)pyrimidin-2-yl)amino)piperidin-3-yl)-4-((E)-4-(dimethylamino)but-2-enamido)benzamide], the figures for the pIC50 on CDK7 and with Jurkat (setting [2]) were greater than 7.00 and greater than 6.30, respectively.

Take `CN(C)C/C=C/C(=O)Nc1ccc(C(=O)N2CCC(Nc3ncc(Cl)c(-c4c[nH]cn4)n3)CC2)cc1` [Compound 127, (E)-N-(4-(4-((5-chloro-4-(1H-imidazol-4-yl)pyrimidin-2-yl)amino)piperidine-1-carbonyl)phenyl)-4-(dimethylamino)but-2-enamide]: the pIC50 on CDK7 is 6.00 to 7.00; in the test with Jurkat (setting [1]), less than 5.30.

Turning to `O=C(/C=C/CNC(=O)C(F)(F)F)Nc1ccc(CN2CCC(Nc3ncc(Cl)c(-c4c[nH]c5ccccc45)n3)CC2)cc1` [Compound 156, (E)-N-(4-((4-((5-chloro-4-(1H-indol-3-yl)pyrimidin-2-yl)amino)piperidin-1-yl)methyl)phenyl)-4-(2,2,2-trifluoroacetamido)but-2-enamide], the pIC50 on CDK7 was 6.00 to 7.00; with Jurkat (setting [1]) it was 5.30 to 6.30.
